What was measured:
[1] = system: mice with induced myocardial infarction; experiment: Post-MI chronic heart failure in mice, invasive hemodynamics with isoproterenol; assay type: in vivo, mouse; conditions: 4 weeks of treatment
From the text: (§1) Myocardial infarction was induced in 10-12 week C57B/6 wild-type mice and after 2 weeks echo cardiograms were used to assess the MI severity in each mouse. Mice were randomized for treatment based on similarity and severity of the induced infarct. The mice were started with either vibegron or vehicle (1-3 doses) administered by continuous infusion using 2 week minipumps (Azlet Corp.) that were filled with the appropriate dose and implanted subcutaneously on the back of each animal in the region of the scapula. The minipumps were replaced with new minipumps in the same location at the 2 week time point and dosed for 4 weeks in total. Cardiac function was assessed by echocardiography (Echo) at 0, 2, 4, and 6 weeks. Some mice were subjected to terminal catheterization to measure hemodynamic pressures and adrenergic responsiveness. At the end of the 4 week treatment period (i.e., 6 weeks after MI was induced), cardiac function was measured, mice were sacrificed for histology of the heart, and terminal blood was collected to confirm the serum concentration of vibegron.
(§2) • 1. Day 0 (after 1-2 weeks acclimation)—pre-surgery Echo • 2. Perform LAD Ligation (MI) or Sham procedure • 3. Day 14—Echo and randomly assign groups • 4. Day 14—begin administration of vehicle and drug for 4 weeks • 5. Day 28—Echo (operator blinded to groups)—change pumps for another 2 week dosing • 6. Day 42—Echo (operator blinded to groups) • 7. Day 42—Some were used for hemodynamics and ISO dose response and all animals sacrificed. Some were used for histology and some for RNA/Protein analysis. Blood was also collected at the time of sacrifice to determine serum concentrations.
Invasive Measurements: The hemodynamic measurements occurred at the end of the study as described in the protocols above. […] Hemodynamic measurements were collected and analyzed for cardiac function.
The maximum (dp/dt max) rate of pressure change during contraction and minimum (dp/dt min) rate of pressure change during relaxation of the left ventricle were measured with increasing doses of isoproterenol in combination with vibegron. […]

[2] = system: mice with induced myocardial infarction; experiment: Post-MI chronic heart failure in mice, heart histology (Mason's trichrome); assay type: in vivo, mouse; conditions: for Average % Infarcted Myocardium / Average Left Ventricle Lumen Area: Week 6
From the text: as §1, §2
At the end of the study period, blood samples were processed for subsequent analysis of compound and decided biomarkers. At the end of the study, the heart was either preserved in formalin (for section, and staining) or snap frozen (for isolation of whole heart RNA, DNA and protein) as described above.
Histologies were obtained by sectioning the mouse hearts vertically in such a way that all four chambers were visible upon staining. The area of the left ventricle cavity was measured by staining with Mason's trichrome stain. The darker color indicates healthy myocardium and the lighter color indicates connective tissue, which is the largest component of infarcted myocardium.

## O=C(Nc1ccc(C[C@@H]2CC[C@H]([C@H](O)c3ccccc3)N2)cc1)[C@@H]1CCc2nccc(=O)n21 [Vibegron, (6S)—N-[4-[[(2S,5R)-5-[(R)-hydroxy(phenyl)methyl]pyrrolidin-2-yl]methyl]phenyl]-4-oxo-7,8-dihydro-6H-pyrrolo[1,2-a]pyrimidine-6-carboxamide]
[1]; increasing doses of isoproterenol, FIG. 4A
  Maximum rate of pressure change (dp/dt max) during left ventricle contraction: increased
[1]; increasing doses of isoproterenol, FIG. 4B
  Minimum rate of pressure change (dp/dt min) during left ventricle relaxation: decreased
[1]; versus mice not receiving vibegron, FIG. 4C
  Change in heart rate with increasing doses of isoproterenol: higher increase in heart rate
[2]; MI mice, 4 weeks of treatment, versus vehicle, FIGS. 5A-5F
  Amount of healthy myocardium after infarction (trichrome stain): increases the amount of healthy myocardium after infarction
[2]; MI mice, high dose (10 mg/kg)
  Average % Infarcted Myocardium: 7.68%
  Average Left Ventricle Lumen Area: 75,061 AU
[2]; MI mice, low dose (1 mg/kg)
  Average % Infarcted Myocardium: 21.79%
  Average Left Ventricle Lumen Area: 170,789 AU
[2]; MI mice, medium dose (3 mg/kg)
  Average % Infarcted Myocardium: 18.85%
  Average Left Ventricle Lumen Area: 72,474 AU
[2]; sham mice, high dose
  Adverse effects in healthy hearts (LV lumen area, infarcted myocardium): no adverse effects
[2]; sham mice, high dose (10 mg/kg)
  Average Left Ventricle Lumen Area: 46,167 AU
